{"source": "patent US20040209956A1", "about": "(priority 2003, published 2004)", "format_in_all_cases": "physicochemical", "key": {"[1]": {"test": "Solubility of Form II in acetonitrile/ethanol 3A mixtures", "settings": "equilibrated nineteen days; for Solubility, 70/30 ACN/EtOH 3A wt. % S-[2-[(1-Iminoethyl)amino]ethyl]-2-methyl-L-cysteine: 70/30 v/v acetonitrile/ethanol 3A; for Solubility, 90/10 ACN/EtOH 3A wt. % S-[2-[(1-Iminoethyl)amino]ethyl]-2-methyl-L-cysteine: 90/10 v/v acetonitrile/ethanol 3A", "description": "Excess solids were equilibrated in these solvents at the appropriate temperature (in a shaker bath) for nineteen days. Supernatant samples were withdrawn and analyzed by HPLC for concentration of S-[2-[(1-Iminoethyl)amino]ethyl]-2-methyl-L-cysteine."}, "[2]": {"test": "Solubility experiments in acetonitrile/water with and without excess maleic acid", "settings": "90/10 acetonitrile/water with excess maleic acid; nineteen days at 5° C.; slurry in single liquid phase, solids form II", "procedure": "These vials were then placed in a shaker bath at 5° C. After four days of equilibration when the vials were observed, it was discovered that the system had turned from a suspension of solids in a single liquid phase to a biphasic liquid with no suspended solids. Both layers from each of the three vials were analyzed for water content (through Karl-Fischer analysis) and concentration of the compound. […] It is worth pointing out though that the exact conditions leading to measured concentrations in the top layer could only be truly established when the partitioning of excess maleic acid is established between the two layers. The bottom layer (rich in water) would most likely be under-saturated since no excess solids remained. This possibility is substantiated by the solubility data on the bottom layer, where the concentrations are found to be very similar across all the experiments. While the vial at 70/30 acetonitrile/water with excess maleic acid remained biphasic even after nineteen days, the 70/30 acetonitrile/water vial without any excess maleic acid after five days had some very large crystals floating in a solution that still seemed biphasic. […] These crystals were used to obtain crystallography data. After nineteen days of equilibration at 5° C., the 90/10 acetonitrile/water vial with excess maleic acid had turned back into a slurry of solids in a single liquid phase."}, "[3]": {"test": "Moisture sorption of Form II by DVS moisture balance", "settings": "25° C.", "description": "However, the solids re-hydrate equally easily when exposed to R.H. greater than 10%. […] The behavior of form II during this experiment was typical of a highly crystalline channel hydrate/solvate."}}}
{"substance": "S-[2-[(1-Iminoethyl)amino]ethyl]-2-methyl-L-cysteine maleate crystalline salt Form II", "values": [{"measurement": "Solubility, 70/30 ACN/EtOH 3A wt. % S-[2-[(1-Iminoethyl)amino]ethyl]-2-methyl-L-cysteine", "setting": "[1]; 5 ° C.", "value": 0.679, "unit": "wt. %"}, {"measurement": "Solubility, 70/30 ACN/EtOH 3A wt. % S-[2-[(1-Iminoethyl)amino]ethyl]-2-methyl-L-cysteine", "setting": "[1]; 25 ° C.", "value": 0.737, "unit": "wt. %"}, {"measurement": "Solubility, 90/10 ACN/EtOH 3A wt. % S-[2-[(1-Iminoethyl)amino]ethyl]-2-methyl-L-cysteine", "setting": "[1]; 5 ° C.", "value": 0.169, "unit": "wt. %"}, {"measurement": "Solubility, 90/10 ACN/EtOH 3A wt. % S-[2-[(1-Iminoethyl)amino]ethyl]-2-methyl-L-cysteine", "setting": "[1]; 25 ° C.", "value": 0.135, "unit": "wt. %"}, {"measurement": "Concentration in the solution phase, S-[2-[(1-Iminoethyl)amino]ethyl]-2-methyl-L-cysteine", "setting": "[2]", "value": 0.613, "unit": "wt %"}, {"measurement": "Cycling between sorption and de-sorption cycles", "setting": "[3]; DVS moisture balance", "value": "did not show any hysteresis or loss of crystallinity"}, {"measurement": "Moisture gain", "setting": "[3]; between 10 and 70% R.H.", "value": "~2.5", "unit": "%"}, {"measurement": "Moisture gain", "setting": "[3]; between 70 and 90% R.H.", "value": "~4.5", "unit": "%"}]}
